Literature values, collected in patent US20110118355A1, “TREATMENT OF MIGRAINE HEADACHES USING ANTIESTROGENS” (priority 2007, published 2011).

Conditions: one person, no aura, headache accompanied by fever; Letter to the Editor, Headache 32:315 (1992)

For `CCN(CC)CCOc1ccc(C(=C(Cl)c2ccccc2)c2ccccc2)cc1` [clomiphene], the “clinical benefit in headaches diagnosed as common migraine” value is listed as “benefited”.
